Data reported in patent US9801404B2, “IGF-1 production-promoting agent” (MORINAGA MILK INDUSTRY CO., LTD., priority 2012, dated 2017).
“And” between values parts separate entries of the source, which are not always exact repeats. Equal values may be shown once.

Key:
[1] = system: IGF-1 mRNA in gastrocnemius; test: Expression of IGF-1 mRNA in gastrocnemius at recovery from tail-suspension muscular atrophy; type: in vivo, C57BL/6J mice; conditions: mice after tail suspension; feed with 0.07 mass % nobiletin for 3 days
Source text: (§1) Male C57BL/6J mice (10-week old) were preliminarily bred for one week, and divided into six groups (control group (Cont), standard feed administration after tail suspension group (Fix), Citrus depressa extract administration after tail suspension group (Fix+SE), polymethoxyflavonoid administration after tail suspension group (Fix+PMF), nobiletin administration after tail suspension group (Fix+NOB), and tangeretin administration after tail suspension group (Fix+TAN), n=8 for the Cont, Fix, Fix+SE, Fix+PMF, Fix+NOB, and Fix+TAN groups).
(§2) After the preliminary breeding, muscular atrophy was induced in the mice of the Fix and Fix+SE groups by tail suspension for two weeks. […]
On day 4 after the change of the feed, the mice were dissected, and the serum IGF-1 concentration, expression of follistatin mRNA in the gastrocnemius, expression of IGF-1 mRNA in the gastrocnemius, and phosphorylation ratio (β+γ) of p70S6K1 in the gastrocnemius were evaluated.
(§3) The serum IGF-1 concentration was measured in the same manner as that used in Example 1. The expression of follistatin mRNA in the gastrocnemius was measured in the same manner as that used in Example 1, except that the hind leg gastrocnemius was extracted from each […], and Assay ID Mm00514982_ml (Applied Biosystems) was used as the primer. […]

p70S6K1 = test: Phosphorylation ratio of p70S6K1 in gastrocnemius at recovery from tail-suspension muscular atrophy; type: in vivo, C57BL/6J mice; conditions: mice after tail suspension; feed with 0.04 mass % tangeretin for 3 days
Source text: as §1, §2
On day 4 after the change of the feed, the mice were dissected, and the serum IGF-1 concentration, expression of follistatin mRNA in the gastrocnemius, expression of IGF-1 mRNA in the gastrocnemius, and phosphorylation ratio (β+γ) of p70S6K1 in the gastrocnemius were evaluated. […]
as §3

With `COc1ccc(-c2cc(=O)c3c(OC)c(OC)c(OC)c(OC)c3o2)cc1OC` [NOB, nobiletin] the “Expression of IGF-1 mRNA in gastrocnemius (AU)” value [1] was 1.75±0.40 AU and 1.75 AU and the “Expression of IGF-1 mRNA in gastrocnemius, Fix+NOB group compared with the Fix group” value [1] was 107%.

`COc1ccc(-c2cc(=O)c3c(OC)c(OC)c(OC)c(OC)c3o2)cc1` [TAN, tangeretin] was tested, and the “Phosphorylation ratio of p70S6K1, Fix+TAN group compared with the Fix group” value (p70S6K1) was 112% and the “Phosphorylation ratio of p70S6K1 in gastrocnemius (β + γ) (%)” value (p70S6K1) was 47.8±11.8% and 47.8%.
